Measurements from the NIST ThermoML archive (doi:10.1016/j.fluid.2012.11.011).
Numbers after ± are expanded uncertainties.

Assay: osmotic coefficient (dimensionless); mn = molality of the nth substance listed, in mol/kg
Settings: 298.15 K, Liquid, isopiestic method

CC1(C)S[C@@H]2[C@H](NC(=O)Cc3ccccc3)C(=O)N2[C@H]1C(=O)[O-].[Na+] + O
Settings | osmotic coefficient
2.442 kPa, m1 = 9.082 | 0.796 ± 0.051
2.452 kPa, m1 = 9.136 | 0.779 ± 0.051
2.606 kPa, m1 = 7.249 | 0.749 ± 0.051
2.623 kPa, m1 = 7.416 | 0.708 ± 0.051
2.757 kPa, m1 = 5.709 | 0.678 ± 0.051
2.901 kPa, m1 = 3.775 | 0.652 ± 0.052
2.919 kPa, m1 = 3.9 | 0.585 ± 0.052
2.93 kPa, m1 = 3.429 | 0.636 ± 0.052
2.93 kPa, m1 = 3.558 | 0.612 ± 0.052
2.958 kPa, m1 = 3.303 | 0.582 ± 0.052
2.986 kPa, m1 = 2.627 | 0.63 ± 0.052
2.989 kPa, m1 = 2.675 | 0.61 ± 0.052
2.989 kPa, m1 = 2.704 | 0.603 ± 0.052
3.002 kPa, m1 = 2.483 | 0.608 ± 0.052
3.006 kPa, m1 = 2.489 | 0.592 ± 0.053
3.007 kPa, m1 = 2.326 | 0.629 ± 0.053
3.007 kPa, m1 = 2.366 | 0.62 ± 0.053
3.009 kPa, m1 = 2.334 | 0.618 ± 0.053
3.033 kPa, m1 = 2.001 | 0.612 ± 0.052
3.049 kPa, m1 = 1.757 | 0.616 ± 0.053
3.05 kPa, m1 = 1.757 | 0.61 ± 0.053
3.068 kPa, m1 = 1.28 | 0.705 ± 0.053
3.089 kPa, m1 = 1.073 | 0.672 ± 0.054
3.091 kPa, m1 = 1.085 | 0.647 ± 0.054
3.123 kPa, m1 = 0.457 | 0.903 ± 0.066
3.126 kPa, m1 = 0.4044 | 0.966 ± 0.066
3.17 kPa, m1 = 0 | 1 ± 0.052

CC1(C)S[C@@H]2[C@H](NC(=O)[C@H](N)c3ccccc3)C(=O)N2[C@H]1C(=O)[O-].[Na+] [Ampicillin Sodium] + O
Settings | osmotic coefficient
2.467 kPa, m1 = 7.468 | 0.93 ± 0.05
2.565 kPa, m1 = 6.773 | 0.867 ± 0.05
2.654 kPa, m1 = 5.991 | 0.822 ± 0.051
2.747 kPa, m1 = 5.699 | 0.696 ± 0.051
2.901 kPa, m1 = 4.439 | 0.553 ± 0.053
2.908 kPa, m1 = 4.261 | 0.562 ± 0.053
2.926 kPa, m1 = 4.103 | 0.54 ± 0.053
2.942 kPa, m1 = 3.839 | 0.538 ± 0.053
2.982 kPa, m1 = 3.301 | 0.513 ± 0.053
3.005 kPa, m1 = 2.932 | 0.504 ± 0.053
3.006 kPa, m1 = 2.958 | 0.499 ± 0.053
3.008 kPa, m1 = 2.867 | 0.506 ± 0.053
3.011 kPa, m1 = 2.855 | 0.498 ± 0.053
3.031 kPa, m1 = 2.397 | 0.519 ± 0.053
3.032 kPa, m1 = 2.398 | 0.514 ± 0.053
3.052 kPa, m1 = 1.912 | 0.548 ± 0.053
3.066 kPa, m1 = 1.699 | 0.546 ± 0.053
3.076 kPa, m1 = 1.476 | 0.563 ± 0.057
3.079 kPa, m1 = 1.392 | 0.578 ± 0.054
3.081 kPa, m1 = 1.369 | 0.575 ± 0.054
3.098 kPa, m1 = 1.134 | 0.564 ± 0.054
3.099 kPa, m1 = 1.093 | 0.576 ± 0.054
3.102 kPa, m1 = 0.9835 | 0.612 ± 0.075
3.103 kPa, m1 = 0.9725 | 0.612 ± 0.055
3.103 kPa, m1 = 1.029 | 0.578 ± 0.091
3.104 kPa, m1 = 1.015 | 0.576 ± 0.055
3.111 kPa, m1 = 0.8951 | 0.586 ± 0.056
3.113 kPa, m1 = 0.8284 | 0.612 ± 0.059
3.113 kPa, m1 = 0.8511 | 0.591 ± 0.058
3.118 kPa, m1 = 0.7369 | 0.617 ± 0.059
3.119 kPa, m1 = 0.6767 | 0.67 ± 0.059
3.119 kPa, m1 = 0.6922 | 0.651 ± 0.06
3.119 kPa, m1 = 0.7007 | 0.644 ± 0.06
3.119 kPa, m1 = 0.7507 | 0.597 ± 0.056
3.13 kPa, m1 = 0.5215 | 0.672 ± 0.058
3.131 kPa, m1 = 0.525 | 0.654 ± 0.056
3.131 kPa, m1 = 0.5325 | 0.648 ± 0.058
3.132 kPa, m1 = 0.47 | 0.72 ± 0.066
3.133 kPa, m1 = 0.4627 | 0.704 ± 0.06
3.139 kPa, m1 = 0.3871 | 0.705 ± 0.077
3.144 kPa, m1 = 0.3032 | 0.75 ± 0.055
3.145 kPa, m1 = 0.3044 | 0.714 ± 0.071
3.155 kPa, m1 = 0.1575 | 0.856 ± 0.05
3.162 kPa, m1 = 0.0754 | 0.885 ± 0.12
3.17 kPa, m1 = 0 | 1 ± 0.07
